The source of these data is article PMC11840788, “3,3′-Diindolylmethane (DIM): A Molecular Scaffold for Inhibition of WWP1 and WWP2, Members of the NEDD4 Family HECT E3 Ligases” (ACS Omega, 2025).

Several values for one entry are separate records, joined by “and”; a condition that tells them apart may be missing. Identical values can stand only once.

This assay has as its target T1, WWP2 (GST-tagged WWP2-FL) (Homo sapiens, UniProt O00308).
T1 construct: Full- length WWP2 (WWP2-FL); made in house; host or cells: E. coli BL21-CodonPlus RP (plasmid pGEX2T-WWP2-FL, Dr Andrew Chantry's Lab)
Put plainly: in vitro autoubiquitination assay (single shot and dose dependency), WWP2. Format: biochemical. As to conditions: single shot, compound at 1 mM (1% DMSO), standardized to 0 and 100% controls. The method, then: A single shot in vitro autoubiquitination assay was performed for I3C, DIM and each of the derivatives against WWP1 and WWP2 using a compound concentration of 1 mM (1% DMSO) (SI Figure S3). […] These active compounds were then subjected to a detailed dose dependency analysis leading to IC50 values. This strategy has previously been employed to screen other WWP1/WWP2 small molecule inhibitors as well as used to assess I3C inhibition toward NEDD4-1.[29],[32] In this way, compounds displaying a relative activity (RA) of less than 50% in the single shot assay were further screened for dose-dependency using a logarithmic concentration range from 10 nM to 1 mM (1% DMSO) (SI Figure S4). […] These were confirmed by counter assays to remove compounds possibly interacting with other enzymes in the assay or interfering with the assay directly (SI Table S1).
Cell lysate containing His-tagged WWP1-L34H or GST-tagged WWP2-FL proteins were incubated on either 96-well Clear Pierce glutathione or nickel-coated plates for 1 h. Reaction mixtures of either 3 ng/well GST-Uba1 and 15 ng/well UbcH7 or 10 ng/well His-Uba1 and 150 ng/well His-UbcH7 were incubated together in 25 mM Tris pH 8.0, 100 mM NaCl, 4 mM MgCl2 containing 60 ng/well FLAG-ubiquitin and 1.25 mM ATP for 40 min. A prior 1% BSA plate blocking step is required for nickel-coated plates. After plate washing, 2 μL of the compound was added at the desired concentration (1% DMSO) followed by 18 μL of the reaction mixture. This was then incubated for 2 h with 0 and 100% controls before 100 μL of anti-FLAG M2-Peroxidase HRP (1:10,000 PBST) was added to each well and incubated for 1 h. Finally, 100 μL of 1 × TMB substrate solution (Invitrogen) was added to each well and incubated for up to 10 min until sufficient blue color change was observed. To stop the reaction, 100 μL of 1 M HCl was added. For the counter assay, 3 ng/well GST-Uba1 and 200 ng/well UbcH7 were incubated with the other reaction mixture components for 1 h before incubating onto plates for a further 1 h. All other steps were followed. The plates were washed three times with PBST (and 15 mM Imidazole) between each step. Quantification was measured by absorbance read at 450 nm. All assay optimizations were as previously reported.[32] IC50 nonlinear regression curves were calculated in GraphPad v10.2 (Prism). […]
Auto-ubiquitination Assay
Cell lysate containing His-tagged WWP1-L34H or GST-tagged WWP2-FL proteins were incubated on either 96-well Clear Pierce glutathione 2 or nickel-coated plates for 1 hour. Reaction mixtures of either 3 ng/well GST-Uba1 and 15 ng/well UbcH7 or 10 ng/well His-Uba1 and 150 ng/well His-UbcH7 were incubated together in 25 mM Tris pH 8.0, 100 mM NaCl, 4 mM MgCl2 containing 60 ng/well FLAG-ubiquitin and 1.25 mM ATP for 40 minutes. A prior 1 % BSA plate blocking step is required for nickel-coated plates. After plate washing, 2 μL of the compound was added at the desired concentration (1 % DMSO) followed by 18 μL of the reaction mixture. This was then incubated for 2 hours with 0% and 100% controls before 100 μL of anti-FLAG M2-Peroxidase HRP (1: 10,000 PBST) was added to each well and incubated for 1 hour.
Finally, 100 μL of 1 × TMB substrate solution (Invitrogen) was added to each well and […]
incubated for up to 10 minutes until sufficient blue colour change was observed. To stop the reaction, 100 μL of 1 M HCl was added. For the counter assay, 3 ng/well GST-Uba1 and 200 ng/well UbcH7 were incubated with the other reaction mixture components for 1 hour before incubating onto plates for a further 1 hour. All other steps were followed.
The plates were washed three times with PBST (and 15 mM Imidazole) between each step. Quantification was measured by absorbance read at 450 nm. All assay optimisations have been previously reported by Watt and colleagues3.
Relative activity (RA) was determined by comparing the autoubiquitination of the WWP ligases in the presence of each compound, i.e TMB absorbance (450 nm), to the […]

T1 sequence (O00308 whole entry): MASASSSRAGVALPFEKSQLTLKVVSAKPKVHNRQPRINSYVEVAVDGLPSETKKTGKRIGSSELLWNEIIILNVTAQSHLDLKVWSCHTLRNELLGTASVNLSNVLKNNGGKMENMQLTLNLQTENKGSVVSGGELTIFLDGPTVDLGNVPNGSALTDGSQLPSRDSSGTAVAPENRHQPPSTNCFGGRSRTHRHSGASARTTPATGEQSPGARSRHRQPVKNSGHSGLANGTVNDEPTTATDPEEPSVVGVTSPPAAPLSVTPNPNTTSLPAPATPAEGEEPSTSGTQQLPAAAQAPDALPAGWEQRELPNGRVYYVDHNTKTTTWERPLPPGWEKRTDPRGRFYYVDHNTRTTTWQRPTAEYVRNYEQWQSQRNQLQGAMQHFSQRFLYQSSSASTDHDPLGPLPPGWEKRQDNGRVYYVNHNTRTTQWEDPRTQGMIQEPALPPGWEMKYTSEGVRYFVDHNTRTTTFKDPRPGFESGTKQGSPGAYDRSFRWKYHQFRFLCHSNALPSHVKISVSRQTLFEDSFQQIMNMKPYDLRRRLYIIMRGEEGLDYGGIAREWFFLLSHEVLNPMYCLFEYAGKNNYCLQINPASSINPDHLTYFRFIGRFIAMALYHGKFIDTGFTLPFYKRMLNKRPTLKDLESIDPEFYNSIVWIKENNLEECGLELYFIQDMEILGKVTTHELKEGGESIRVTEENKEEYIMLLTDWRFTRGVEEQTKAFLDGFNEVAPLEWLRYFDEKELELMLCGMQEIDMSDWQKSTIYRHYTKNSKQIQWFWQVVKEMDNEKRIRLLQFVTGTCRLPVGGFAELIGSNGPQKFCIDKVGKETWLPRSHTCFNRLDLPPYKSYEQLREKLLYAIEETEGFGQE

On to `OCc1c[nH]c2ccccc12` [Compound I3C, Indole-3-carbinol, reference compound], for which the “WWP2 RA (%) relative activity” value is 88.0 ± 7.5% and 88.0%.
